Measured values taken from the NIST ThermoML archive (doi:10.1016/j.jct.2017.03.026).
Numbers after ± are expanded uncertainties.

Conditions: 101.33 kPa, Crystal, Small (less than 1 g) adiabatic calorimetry

Question: What does the source list for `O.O.O.O.O.O=S(=O)([O-])[O-].[Cu+2]` [copper(II) sulfate pentahydrate]?
Answer: molar entropy (5 K): 1.205 ± 0.092 J/K/mol; molar entropy (10 K): 1.688 ± 0.11 J/K/mol; molar entropy (15 K): 2.669 ± 0.12 J/K/mol; molar entropy (20 K): 4.429 ± 0.15 J/K/mol; molar entropy (25 K): 6.984 ± 0.19 J/K/mol; molar entropy (30 K): 10.25 ± 0.25 J/K/mol; molar entropy (35 K): 14.13 ± 0.29 J/K/mol; molar entropy (40 K): 18.55 ± 0.33 J/K/mol; molar entropy (45 K): 23.35 ± 0.38 J/K/mol; molar entropy (50 K): 28.39 ± 0.42 J/K/mol; molar entropy (55 K): 33.74 ± 0.46 J/K/mol; molar entropy (60 K): 39.25 ± 0.5 J/K/mol; molar entropy (65 K): 44.9 ± 0.54 J/K/mol; molar entropy (70 K): 50.64 ± 0.59 J/K/mol; molar entropy (75 K): 56.43 ± 0.63 J/K/mol; molar entropy (80 K): 62.26 ± 0.67 J/K/mol; molar entropy (85 K): 68.09 ± 0.71 J/K/mol; molar entropy (90 K): 73.92 ± 0.78 J/K/mol; molar entropy (95 K): 79.73 ± 0.8 J/K/mol; molar entropy (100 K): 85.52 ± 0.84 J/K/mol; molar entropy (110 K): 97.04 ± 0.91 J/K/mol; molar entropy (120 K): 108.5 ± 1 J/K/mol; molar entropy (130 K): 119.8 ± 1 J/K/mol; molar entropy (140 K): 131 ± 1.1 J/K/mol; molar entropy (150 K): 142.1 ± 1.1 J/K/mol; molar entropy (160 K): 153.1 ± 1.2 J/K/mol; molar entropy (170 K): 164 ± 1.3 J/K/mol; molar entropy (180 K): 174.7 ± 1.3 J/K/mol; molar entropy (190 K): 185.4 ± 1.3 J/K/mol; molar entropy (200 K): 196 ± 1.4 J/K/mol; molar entropy (210 K): 206.5 ± 1.5 J/K/mol; molar entropy (220 K): 216.9 ± 1.5 J/K/mol; molar entropy (230 K): 227.2 ± 1.6 J/K/mol; molar entropy (240 K): 237.5 ± 1.6 J/K/mol; molar entropy (250 K): 247.6 ± 1.6 J/K/mol; molar entropy (260 K): 257.7 ± 1.7 J/K/mol; molar entropy (270 K): 267.6 ± 1.7 J/K/mol; molar entropy (273.15 K): 270.7 ± 1.7 J/K/mol; molar entropy (280 K): 277.5 ± 1.8 J/K/mol; molar entropy (290 K): 287.3 ± 1.9 J/K/mol; molar entropy (298.15 K): 295.2 ± 1.9 J/K/mol; molar entropy (300 K): 297 ± 1.9 J/K/mol; molar entropy (310 K): 306.6 ± 1.9 J/K/mol; molar entropy (320 K): 316.1 ± 2 J/K/mol
